Test results reported in PubChem BioAssay AID179 (DTP/NCI, 2004).
Several values for one entry are separate records, joined by “and”; a condition that tells them apart may be missing. Identical values can stand only once. Activity calls are given as the source filed them.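 The calls were made as follows: active = compounds giving half or more protection of infected cells from virus-caused growth loss, again on retest; inactive = the rest.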

Test system: CEM cells HIV-1 protection, formazan growth assay
Test: NCI AIDS Antiviral Assay
Conditions: for IC50: measured here: growth of uninfected CEM cells
How it was run: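 Human CEM cells, uninfected and HIV-1-infected, received five drug concentrations, and growth was read by soluble formazan assay. Compounds giving at least 50% protection were retested; reproducible 100% protection defined confirmed active.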

Row | SMILES | EC50 | IC50 | outcome
1 | CC1=C(C#N)C2(C(=O)N(C)c3ccccc32)C(C#N)=C(C)N1c1ccccc1 | > 14.1 µM | > 14.1 µM | 
2 | COc1ccc(CC(=O)NCCc2ccc(OC)c(OC)c2)cc1Br | > 316 µM | > 316 µM | 
3 | O=[N+]([O-])c1ccc(S(=O)(=O)N/N=C/c2cccc3ccccc23)cc1 | > 51.3 µM | > 51.3 µM | 
4 | O=C1c2c(O)cc(O)cc2OC(c2ccc(O)cc2O)C1O (centres undefined) | > 200 µM | 93.3 µM | 
5 | CCCCSC1CCSc2c1ccc1ccccc21 (centres undefined) |  |  | inactive
6 | CCOC(=O)CC(C)C1(C(=O)OCC)CCCCC1=O (centres undefined) | > 331 µM | > 331 µM | 
7 | O=C1c2cccn2-c2ccccc2OC1c1ccc(NC(=S)Nc2ccc(Cl)cn2)cc1 (centres undefined) | > 200 µM | 15.8 µM | 
8 | CC1=C(C)C(=O)C(C2=C(C3=CC(=O)C(C)=C(C)C3=O)C(=O)C(C)=C(C)C2=O)=CC1=O | > 20 µM | 1.02 µM | 
9 | O=C(O)C(SSC(C(=O)O)(c1ccccc1)c1ccccc1)(c1ccccc1)c1ccccc1 | > 200 µM | 89.1 µM | 
10 | COC(=O)C1=C(C(=O)OC)C23CC4CCC2(C(=O)C1O3)C4(C)C (centres undefined) | > 251 µM | 16.6 µM | 
11 | NNC(=O)N/N=C1\C(=O)N(c2nccs2)C(=O)C(=O)C1c1nc2ccccc2s1 (centres undefined) | > 2.45 µM | > 2.45 µM | 
12 | O=c1oc2ccccc2n1CCN1CCCCC1 | > 200 µM | > 200 µM | 
13 | CN(C)CCC(/C=C/c1ccccc1)=N\Nc1ccc(Cl)cc1 | > 100 µM | 10.7 µM | 
14 | N#CC1(Cc2ccccc2Cl)c2ccccc2C=CN1C(=O)c1ccccc1 (centres undefined) |  |  | inactive
15 | CCCCCn1cnc2c(=S)nc(N)[nH]c21 | > 200 µM | 195 µM | 
16 | Cc1noc2c1CSC1=C2S(=O)(=O)N(C)c2ccccc21 | > 58.9 µM | > 58.9 µM | 
17 | CCC[CH2][Sn]([CH2]CCC)([O]C(=O)C1CCC(=O)N1)[O]C(=O)C1CCC(=O)N1 (centres undefined) | > 38.9 µM | 0.0912 µM | 
18 | CO[C@@]1(c2ccccc2)O[C@H]2OCCC2[C@H]1c1ccc(Cl)cc1 (some centres undefined) | > 11.5 µM | > 11.5 µM | 
19 | O=C(NC(Cc1cnc[nH]1)C(=O)N1CCCC1)C1CCCC1 (centres undefined) | > 200 µM |  | 
20 | CSC(SC)=C(C#N)C(=O)Nc1ccc(Cl)cc1 | > 14.8 µM | 5.37 µM | 
21 | O=[N+]([O-])c1cccc2nc3ccccc3c(NCCCNc3c4ccccc4nc4cccc([N+](=O)[O-])c34)c12 | > 200 µM | 0.0631 µM | 
22 | C[C@]12CC/C(=N/O)C(O)=C1CC[C@@H]1C2CC[C@]2(C)NC(=O)CCC12 (some centres undefined) | > 282 µM | 132 µM | 

Row | SMILES | EC50 | IC50 | outcome
23 | ClC(Cl)(Cl)SSC(=Nc1ccccc1)SSC(Cl)(Cl)Cl | > 200 µM | 4.79 µM | 
24 | COc1cc(/C=C2\C(=O)N(c3cccc(Cl)c3)C(c3ccccc3)S2(=O)=O)cc(OC)c1OC (centres undefined) | > 200 µM | 112 µM | 
25 | CC(=O)/C(=C/n1c(=S)sc2ccccc21)C(=O)Nc1ccccc1C | > 200 µM | 170 µM | 
26 | CC1=NN(c2ccccc2)C(=O)C1N=Nc1ccc(S(=O)(=O)Nc2cc(C)nc(C)n2)cc1 (centres undefined) |  |  | inactive
27 | COc1c2c(c3c(c1CCC(=O)O)OC(C)(C)C=C3)OC(C)(C)C=C2 | > 200 µM | 138 µM | 
28 | O=C(O)c1c(Cl)c(Cl)c(Cl)c(Cl)c1-c1c2ccc(=O)cc-2oc2cc(O)ccc12 | 6.46 µM | 29.5 µM | 
29 | O=[N+]([O-])c1cc(Cl)ccc1Sc1ccc(Cl)cc1[N+](=O)[O-] | > 129 µM | > 129 µM | 
30 | CN=C1OC2(c3ccccc3)C3=C(OC(=NC)N2C)C(=O)OC3(c2ccccc2)N1C (centres undefined) | > 200 µM | 148 µM | 
31 | O=C1OC(=O)C2=C1C(c1cccs1)C=C(c1cccnc1)N2c1ccncc1 (centres undefined) | > 200 µM | 9.77 µM | 
32 | CCCC(NCCNC(CCC)C(=O)O)C(=O)O (centres undefined) | > 589 µM | > 589 µM | 
33 | O=C(O)c1ccc(S(=O)(=O)c2ccc(C(=O)O)c(C(=O)O)c2)cc1C(=O)O | > 200 µM | 191 µM | 
34 | O=C(O)C(CSC(c1ccccc1)(c1ccccc1)c1ccccc1)N=Cc1cccs1 (centres undefined) | > 200 µM | 2.04 µM | 
35 | CN1C2C=CC(=O)C1C(C#N)C2 (centres undefined) | > 200 µM | 34.7 µM and 115 µM | 
36 | NCCCC(N)(C(=O)O)C(F)F (centres undefined) | > 200 µM | 129 µM | 
37 | O=c1c2cc([N+](=O)[O-])cnc2sn1-c1ccc(Oc2ccccc2)cc1 | 37.2 µM | 43.7 µM | 
38 | CC(C)C1CSC2N1C(=O)C2(OCc1ccccc1)C1CC1 (centres undefined) | > 200 µM | 81.3 µM | 
39 | O=C(Cc1nc2sc3c(c2c(=O)[nH]1)CCCC3)Nc1ccccc1 |  |  | inactive
40 | Cc1cc(C)n(-c2nc(-c3ccccc3)cs2)n1 | > 200 µM | 72.4 µM | 
41 | Cc1cc(N(CCC#N)CCC#N)ccc1/C=C1\SC(=S)NC1=O | > 200 µM | 32.4 µM | 
42 | CC(=C\c1ccccc1)/C=C(\C#N)C(N)=O | > 200 µM | 97.7 µM | 
43 | O=C1C[C@@H]([C@H](NC(=O)OCc2ccccc2)C(=O)O)ON1 |  |  | inactive
44 | Cc1nc2ccccc2c(=O)n1NC(=S)Nc1cccc(Cl)c1 | > 20.9 µM | > 20.9 µM | 

Row | SMILES | EC50 | IC50 | outcome
45 | CO/C=C/c1cc2c(cc1C(OC)OC)OCO2 |  |  | inactive
46 | CC(C)CN(CC(C)C)C(=O)C1CCCC[C@@H]1C(=O)O (some centres undefined) | > 891 µM | > 891 µM | 
47 | C=CC1(CC)/C(=N\O)C(CC)(CC)C(=O)N1O (centres undefined) | > 1050 µM | > 1050 µM | 
48 | CCn1c(C)nn2c(=O)c3ccccc3nc2c1=O | > 100 µM | > 100 µM | 
49 | CC[C@@]12N=C(N(C)C)C[C@]1(O)ON=C2C | > 200 µM | > 200 µM | 
50 | O=c1[nH]c(N/N=C\C(O)C(O)C(O)C(O)CO)nc2ccccc12 (centres undefined) | > 200 µM | > 200 µM | 
51 | Nc1ccc(/C=C2\C=Cc3ccccc32)cc1 | > 200 µM | 28.2 µM | 
52 | O=c1ccc2cc(O)c(O)cc2o1 | > 1410 µM | 93.3 µM | 
53 | COc1ccc2c(c1)CCc1c-2[nH]c2ccc(OC)cc12 | > 200 µM | > 200 µM | 
54 | Cc1cc(N(CCC#N)S(=O)(=O)c2ccccc2)ccc1C=Nc1ccc(C(=O)O)cc1 | > 151 µM | 85.1 µM | 
55 | CC(=O)OC1=C2CC3(C)OC(=O)CC(C)(C)C3=CC=C2C=C(C(C)C)C1=O (centres undefined) |  |  | inactive
56 | CC(=O)Nc1ccc(S(=O)(=O)N/N=C(/C)C2CCOC2=O)cc1 (centres undefined) | > 741 µM | > 741 µM | 
57 | Cc1cc2c(c(C(=O)O)c1C)-c1cccc(Cl)c1C2=O |  |  | inactive
58 | C1#CCCCCCCC#CCCCCC1.[C-]#[O+].[C-]#[O+].[C-]#[O+].[C-]#[O+].[C-]#[O+].[C-]#[O+].[C-]#[O+].[C-]#[O+].[C-]#[O+].[C-]#[O+].[C-]#[O+].[C-]#[O+].[Co].[Co].[Co].[Co] | > 2.57 µM | > 2.57 µM | 
59 | O=C(N/N=C\c1ccc[nH]1)c1ccncc1 | > 200 µM | > 200 µM | 
60 | Cc1c(C#N)c(N)n(C2OC(CO)C(O)C(O)C2O)c(=S)c1C#N (centres undefined) | > 200 µM | > 200 µM | 
61 | CC(CC(C)(C)[N+](C)(C)C)[N+](C)(C)C (centres undefined) | > 200 µM | > 200 µM | 
62 | Nc1ccc[nH]c1=O | > 234 µM | > 234 µM | 
63 | CCOC(=O)N1CCC2(CC1)C[C@](Sc1ccccc1)(C(C)=O)[C@H](C)O2 | > 200 µM | > 200 µM | 
64 | CC1C[N+]2(CNC(=O)C3=C(O)C4(O)C(=O)C5=C(O)c6c(O)cccc6C(C)(O)C5CC4C(N(C)C)C3=O)CC(C)O[B-]2(c2ccccc2)O1 (centres undefined) | > 138 µM | 105 µM | 
65 | CCOC(=O)[C@@]12C[C@@H](C#N)C1N(Cc1ccccc1)[C@@H]1ON=C(c3ccc(Cl)cc3)[C@@H]1C2 (some centres undefined) |  |  | inactive
66 | CC1(C)C(=C(C#N)C#N)C(C)(C)C1=C(C#N)C#N | > 100 µM | > 100 µM | 

Row | SMILES | EC50 | IC50 | outcome
67 | Cn1c(=O)c2c(nc3sc4c(n32)C(=O)c2c(O)ccc(O)c2C4=O)n(C)c1=O | 0.2 µM | 0.257 µM | 
68 | CCOC(=O)Cc1ccc2c(c1O)C(=O)c1c(ccc(CC(=O)OCC)c1O)C2=O |  |  | inactive
69 | CNc1ccc(/C=C2\C=Cc3ccccc32)cc1Br | > 12 µM | > 12 µM | 
70 | COc1cc(/C=C/C(=O)OC[C@]23O[C@H]2[C@@H](OC2OC(C)C(O)C(O)C2O)C2C=CO[C@@H](OC4OC(CO)C(O)C(O)C4O)C23)ccc1O (some centres undefined) | > 200 µM | > 200 µM | 
71 | CCOC(=O)Cn1c(=O)c2nc(SC)sc2n(-c2ccccc2)c1=S | > 200 µM | > 200 µM | 
72 | CCCCOC(=O)C(=O)/C(=C\n1c(=S)[nH]c2cc(C)ccc21)C(=O)C=C(C)C | > 200 µM | > 200 µM | 
73 | Clc1cc2c(c3ncccc13)OCN(Cc1ccccc1)C2 | > 200 µM | 1.02 µM | 
74 | COc1ccc(N(CC(=O)O)S(=O)(=O)c2ccccc2)cc1 |  |  | inactive
75 | O=C(O)CCNCCCNCCC(=O)O | > 851 µM | > 851 µM | 
76 | O=C1CS(=O)(=O)C(c2cccc(F)c2)N1N1C(=O)CS(=O)(=O)C1c1cccc(F)c1 (centres undefined) | > 200 µM | > 200 µM | 
77 | Cn1c2ccccc2c2ccc3c(c21)C(=O)c1ccc2c4ccccc4n(C)c2c1C3=O | > 200 µM | > 200 µM | 
78 | c1cc(-c2ccc(-c3ccsc3)s2)cs1 | > 200 µM | > 200 µM | 
79 | O=C(Nc1ccc([N+](=O)[O-])cc1)N(c1cc(Cl)ccn1)C1CCCCC1 | > 200 µM | 11 µM | 
80 | Nc1ccc2c(c1)C1Oc3ccccc3CC1CO2 (centres undefined) | > 200 µM | 110 µM | 
81 | COC12OCC(OC1OCc1ccccc1)C1OC(C)(C)OC12 (centres undefined) | > 200 µM | 105 µM | 
82 | COC(=O)C1=C(C(=O)NNc2ccccc2)N(c2cccnc2Cl)C(c2ccccc2)=CC1c1ccccc1 (centres undefined) | > 200 µM | 22.9 µM | 
83 | CCc1nc(N)c2nc(-c3ccc(C#N)cc3)oc2n1 | > 100 µM | > 100 µM | 
84 | Oc1ccccc1C=Nc1ccccc1N=Cc1ccccc1O | > 4.57 µM | > 4.57 µM | 
85 | O=C1OC(c2ccccc2)=N/C1=C\c1ccco1 | > 75.9 µM | 60.3 µM | 
86 | CCCCCCC(=O)CC(=O)C(=O)Nc1ccccc1C | > 25.1 µM | > 25.1 µM | 
87 | OCc1ccc2c(c1)CC1(C2)Cc2cc3c(cc2C1)CCC3 | > 200 µM | 0.977 µM | 
88 | C=C1C(=O)O[C@H]2C1C(OC(=O)/C(C)=C/C)C(OC(C)=O)[C@@](C)(O)C1C2C(C)=C[C@H]1OC(C)=O (some centres undefined) | > 141 µM | 6.17 µM | 
